Consider 16 compounds from patent publication US20250367129A1, “Lipid Compounds and Uses Thereof” (Pfizer Inc., priority 2022, published 2025).

The nature of data set [1]: LNP size and polydispersity index by Malvern Zetasizer dynamic light scattering (CA HA modFlu mRNA LNPs). Type of data set: physicochemical. As to conditions: DLS; for Size (nm): LNP of the ionizable lipid:cholesterol:DSPC:ALC-0159 about 46.3:42.7:9.4:1.6, N:P about 6:1, CA HA modFlu mRNA; for PDI: LNP with CA HA modFlu mRNA. Here is the method:
(§1) Lipid nanoparticles were prepared and tested according to the general procedures described in U.S. Pat. No. 9,737,619 (PCT Pub. No. WO2015/199952) and U.S. Pat. No. 10,166,298 (PCT Pub. No. WO 2017/075531) and PCT Pub. No. WO2020/146805. The novel ionizable lipids of the invention, cholesterol, distearoylphosphatidylcholine (DSPC) and ALC-0159 2-[(polyethylene glycol)-2000]-N,N ditetradecylacetamide were solubilized in ethanol at a molar ratio of about 46.3:42.7:9.4:1.6. Lipid nanoparticles were made by mixing the lipids containing organic phase with the mRNA containing aqueous phase using an N:P ratio of about 6:1. The mRNA was diluted in buffer. Syringe pumps were used to mix the ethanolic lipid solution with the mRNA aqueous solution. The ethanol was then removed, and the external buffer replaced with another buffer (e.g., Tris) by dialysis. Finally, the lipid nanoparticles were filtered.
(§2) Total RNA concentration and encapsulation efficiency was assessed using the RiboGreen RNA quantitation assay. RNA integrity pre and post formulation was monitored by Agilent Fragment Analyzer capillary gel electrophoresis. Malvern Zetasizer dynamic light scattering (DLS) was used to determine LNP size and polydispersity index (PDI). In vitro expression of the novel ionizable lipid nanoparticles was assessed in HEK293F and Hela cells similar to described in Example 72. Nuclear count and identification of cells stained positive for gene of interest was done on an Opera Phenix high content imager (PerkinElmer, USA).

Data set [2] in a line: Encapsulation efficiency, RiboGreen RNA quantitation assay (CA HA modFlu mRNA LNPs). The format is physicochemical. As to conditions: LNP with CA HA modFlu mRNA. As for the experimental part: as §1, §2
A further data set concerns HEK293F cells. Put plainly: In vitro expression of novel ionizable lipid nanoparticles, high content imaging (CA HA modFlu mRNA). As to conditions: LNP with CA HA modFlu mRNA. The format is cell-based. As for the experimental part:
(§3) Plated Hek293T or Hela cells were dosed with lipid nanoparticles in a total volume of 40 μl cell culture media and incubated overnight at 37° C. and 5% CO2. After fixation with 4% paraformaldehyde in PBS cells were washed in PBS containing 0.3% Triton-X100 and 3% BSA (w/v), followed by nuclear staining with Hoechst and antibody staining for the encoded gene of interest. Nuclear count and identification of cells stained positive for gene of interest was done on an Opera Phenix high content imager (PerkinElmer, USA).
as §1, §2

In a further data set the test system is Hela cells. The data set is described as above. The format is cell-based. As to conditions: LNP with CA HA modFlu mRNA. As for the experimental part: as §3, §1, §2

A value given as a limit tells only on which side of the number the result lay.

With `CCCCCCCC(CCCCCCC)C(=O)O[C@@H]1CC2(CCN(CCO)CC2)C[C@H]1OC(=O)C(CCCCCCC)CCCCCCC` (racemic) [Example 52, rac-(2R,3R)-8-(2-hydroxyethyl)-8-azaspiro[4.5]decane-2,3-diyl bis(2-heptylnonanoate)], in data set [1], the “Size (nm)” value came out at 66 nm and the PDI turned out to be 0.088. The EE % in data set [2] is 99%. Moreover, the “EC50 Hek293F (ng/well)” value in the data set with HEK293F cells turned out to be 3.3 ng/well. Further, the “EC50 Hela (ng/well)” value with Hela cells amounted to 11.0 ng/well.

As for `CCCCCCCC(CCCCCCC)C(=O)O[C@@H]1CC2(CCN(CCCO)C2)C[C@H]1OC(=O)C(CCCCCCC)CCCCCCC` (racemic) [Example 53, rac-(7R,8R)-2-(3-hydroxypropyl)-2-azaspiro[4.4]nonane-7,8-diyl bis(2-heptylnonanoate)], in data set [1], the “Size (nm)” value was 89 nm and the PDI was 0.090. Further, the EE % in data set [2] stood at 94%. In addition, the “EC50 Hek293F (ng/well)” value with HEK293F cells was determined as 2.3 ng/well. In addition, in the data set on Hela cells, the “EC50 Hela (ng/well)” value was 29.5 ng/well.

On to `CCCCCCCC(CCCCCCC)C(=O)O[C@@H]1CC2(CCN(CCCO)CC2)C[C@H]1OC(=O)C(CCCCCCC)CCCCCCC` (racemic) [Example 54, rac-(2R,3R)-8-(3-hydroxypropyl)-8-azaspiro[4.5]decane-2,3-diyl bis(2-heptylnonanoate)], for which, in data set [1], the “Size (nm)” value was 71 nm and the PDI is 0.101. In addition, the EE % in data set [2] is recorded as 98%. Also, the “EC50 Hek293F (ng/well)” value in the data set with HEK293F cells was 1.5 ng/well. The “EC50 Hela (ng/well)” value in the data set with Hela cells turned out to be 3.6 ng/well.

With `CCCCCCCC(CCCCCCC)C(=O)O[C@@H]1CC2(CCN(CCCNc3c(NC)c(=O)c3=O)CC2)C[C@H]1OC(=O)C(CCCCCCC)CCCCCCC` (racemic) [Example 55, rac-(2R,3R)-8-(3-((2-(methylamino)-3,4-dioxocyclobut-1-en-1-yl)amino)propyl)-8-azaspiro[4.5]decane-2,3-diyl bis(2-heptylnonanoate)], in data set [1], the “Size (nm)” value is listed as 65 nm and the PDI turned out to be 0.124. For the same compound, in data set [2], the EE % worked out at 100%. Besides, the “EC50 Hek293F (ng/well)” value with HEK293F cells was determined as 21.4 ng/well. Further, the “EC50 Hela (ng/well)” value with Hela cells is reported as 45.0 ng/well.

On to `CCCCCCCC(CCCCCCC)C(=O)O[C@@H]1CC2(CCN(CCCCCO)CC2)C[C@H]1OC(=O)C(CCCCCCC)CCCCCCC` (racemic) [Example 56, rac-(2R,3R)-8-(5-hydroxypentyl)-8-azaspiro[4.5]decane-2,3-diyl bis(2-heptylnonanoate)], for which, in data set [1], the “Size (nm)” value worked out at 81 nm and the PDI is reported as 0.063. In data set [2], this compound showed an EE % of 98%. Further, the “EC50 Hek293F (ng/well)” value in the data set with HEK293F cells is 0.60 ng/well. Also, the “EC50 Hela (ng/well)” value with Hela cells is recorded as 0.96 ng/well.

Turning to `CCCCCCCCC(CCCCCCCC)C(=O)O[C@@H]1CC2(CCN(CCCCO)CC2)C[C@H]1OC(=O)C(CCCCCCCC)CCCCCCCC` (racemic) [Example 59, rac-(2R,3R)-8-(4-hydroxybutyl)-8-azaspiro[4.5]decane-2,3-diyl bis(2-octyldecanoate)], in data set [1], the “Size (nm)” value is given as 80 nm and the PDI is on record as 0.091. The compound also had an EE % in data set [2] of 97%. The “EC50 Hek293F (ng/well)” value in the data set with HEK293F cells is recorded as 2.3 ng/well. In addition, the “EC50 Hela (ng/well)” value with Hela cells was 34.6 ng/well.

In the case of `CCCCCCCCCCCCC(CCCCCCC)C(=O)O[C@@H]1CC2(CCN(CCCCO)CC2)C[C@H]1OC(=O)C(CCCCCCC)CCCCCCCCCCCC` (mixture of isomers) [Example 60, rac-(2R,3R)-8-(4-hydroxybutyl)-8-azaspiro[4.5]decane-2,3-diyl bis(2-heptyltetradecanoate)], in data set [1], the “Size (nm)” value is reported as 94 nm and the PDI came out at 0.117. The compound also came in with an EE % in data set [2] of 98%. In the data set with HEK293F cells, the “EC50 Hek293F (ng/well)” value is listed as 1.6 ng/well. Besides, the “EC50 Hela (ng/well)” value in the data set on Hela cells is listed as more than 50 ng/well.

Consider `CCCCCCCCC(CCCCCC)C(=O)O[C@@H]1CC2(CCN(CCCCO)CC2)C[C@H]1OC(=O)C(CCCCCC)CCCCCCCC` (mixture of isomers) [Example 61, rac-(2R,3R)-8-(4-hydroxybutyl)-8-azaspiro[4.5]decane-2,3-diyl bis(2-hexyldecanoate)], for which, in data set [1], the “Size (nm)” value is on record as 77 nm and the PDI is recorded as 0.094. In data set [2], this compound registered an EE % of 99%. Besides, the “EC50 Hek293F (ng/well)” value in the data set with HEK293F cells worked out at 1.0 ng/well. Besides, the “EC50 Hela (ng/well)” value with Hela cells was found to be 1.6 ng/well.

`CCCCCCCC(CCCCCCC)OC(=O)CCC(=O)O[C@@H]1CC2(CCN(CCCCO)CC2)C[C@H]1OC(=O)CCC(=O)OC(CCCCCCC)CCCCCCC` (racemic) [Example 62, rac-O,O′-((2R,3R)-8-(4-hydroxybutyl)-8-azaspiro[4.5]decane-2,3-diyl) di(pentadecan-8-yl) disuccinate]: in data set [1], the “Size (nm)” value is 161 nm and the PDI was 0.090. In addition, the EE % in data set [2] was 99%. In addition, the “EC50 Hek293F (ng/well)” value with HEK293F cells amounted to 0.36 ng/well. The “EC50 Hela (ng/well)” value in the data set on Hela cells is on record as 1.0 ng/well.

As for `CCCCCCCC(CCCCCCC)OC(=O)CCCCCC(=O)O[C@@H]1CC2(CCN(CCCCO)CC2)C[C@H]1OC(=O)CCCCCC(=O)OC(CCCCCCC)CCCCCCC` (racemic) [Example 63, rac-O′^1,O^1-((2R,3R)-8-(4-hydroxybutyl)-8-azaspiro[4.5]decane-2,3-diyl) 7,7′-di(pentadecan-8-yl) di(heptanedioate)], in data set [1], the “Size (nm)” value is on record as 107 nm and the PDI turned out to be 0.060. The compound further gave an EE % in data set [2] of 99%. Besides, the “EC50 Hek293F (ng/well)” value in the data set on HEK293F cells is 0.39 ng/well. In addition, in the data set on Hela cells, the “EC50 Hela (ng/well)” value was determined as 0.58 ng/well.

With `CCCCCCCC(CCCCCCC)C(=O)OCCCCCC(=O)O[C@@H]1CC2(CCN(CCCCO)CC2)C[C@H]1OC(=O)CCCCCOC(=O)C(CCCCCCC)CCCCCCC` (racemic) [Example 64, rac-(((2R,3R)-8-(4-hydroxybutyl)-8-azaspiro[4.5]decane-2,3-diyl)bis(oxy))bis(6-oxohexane-6,1-diyl) bis(2-heptylnonanoate)], in data set [1], the “Size (nm)” value is 110 nm and the PDI is 0.056. This compound also yielded an EE % in data set [2] of 99%. Further, in the data set with HEK293F cells, the “EC50 Hek293F (ng/well)” value came out at 0.64 ng/well. For the same compound, in the data set on Hela cells, the “EC50 Hela (ng/well)” value was determined as 0.69 ng/well.

Consider `CCCCCCCCC(CCCCC)C(=O)O[C@@H]1CC2(CCN(CCCCO)CC2)C[C@H]1OC(=O)C(CCCCC)CCCCCCCC` (mixture of isomers) [Example 65, rac-(2R,3R)-8-(4-hydroxybutyl)-8-azaspiro[4.5]decane-2,3-diyl bis(2-pentyldecanoate)], for which, in data set [1], the “Size (nm)” value worked out at 123 nm and the PDI was found to be 0.038. In data set [2], this compound showed an EE % of 97%. The “EC50 Hek293F (ng/well)” value in the data set on HEK293F cells is on record as 0.35 ng/well. Besides, the “EC50 Hela (ng/well)” value with Hela cells is listed as 0.57 ng/well.

For the compound `CCCCCCCCC(CCCCCCC)C(=O)O[C@@H]1CC2(CCN(CCCCO)CC2)C[C@H]1OC(=O)C(CCCCCCC)CCCCCCCC` (mixture of isomers) [Example 66, rac-(2R,3R)-8-(4-hydroxybutyl)-8-azaspiro[4.5]decane-2,3-diyl bis(2-heptyldecanoate)], in data set [1], the “Size (nm)” value is 78 nm and the PDI is listed as 0.146. This compound also showed an EE % in data set [2] of 97%. For the same compound, the “EC50 Hek293F (ng/well)” value in the data set on HEK293F cells was determined as 1.1 ng/well. Also, the “EC50 Hela (ng/well)” value with Hela cells is listed as 2.2 ng/well.

As to `CCCCCCCCCC(CCCCCC)C(=O)O[C@@H]1CC2(CCN(CCCCO)CC2)C[C@H]1OC(=O)C(CCCCCC)CCCCCCCCC` (mixture of isomers) [Example 67, rac-(2R,3R)-8-(4-hydroxybutyl)-8-azaspiro[4.5]decane-2,3-diyl bis(2-hexylundecanoate)], in data set [1], the “Size (nm)” value was determined as 89 nm and the PDI came to 0.127. Also, in data set [2], the EE % was determined as 96%. For the same compound, the “EC50 Hek293F (ng/well)” value in the data set with HEK293F cells stood at 1.4 ng/well. Also, the “EC50 Hela (ng/well)” value with Hela cells was determined as 2.0 ng/well.

With `CCCCCCCCC(CCCCCC)C(=O)O[C@@H]1CC2(CCN(CCCCO)CC2)C[C@H]1OC(=O)C(CC)CCCCCCC` (mixture of isomers) [Example 70, rac-(2R,3R)-3-((2-ethylnonanoyl)oxy)-8-(4-hydroxybutyl)-8-azaspiro[4.5]decan-2-yl 2-hexyldecanoate], in data set [1], the “Size (nm)” value turned out to be 116 nm and the PDI was determined as 0.110. The EE % in data set [2] came to 98%. In addition, the “EC50 Hek293F (ng/well)” value with HEK293F cells stood at 3.0 ng/well. Besides, the “EC50 Hela (ng/well)” value in the data set with Hela cells came to 1.2 ng/well.

In the case of `CCCCCCCC(CCCCCCC)C(=O)O[C@@H]1CC2(CCN(CCCCO)CC2)C[C@H]1OC(=O)C(CCCCCCC)CCCCCCC` (single isomer, unassigned) [Example 57, (2R*,3R*)-8-(4-hydroxybutyl)-8-azaspiro[4.5]decane-2,3-diyl bis(2-heptylnonanoate)], in data set [1], the “Size (nm)” value worked out at 74 nm and the PDI was determined as 0.118. Further, the EE % in data set [2] was found to be 99%. In addition, in the data set with HEK293F cells, the “EC50 Hek293F (ng/well)” value worked out at 2.9 ng/well. For the same compound, the “EC50 Hela (ng/well)” value with Hela cells turned out to be 4.7 ng/well.
